Values joined by “and” are separate entries in the source; they are usually repeats but may differ in a detail not shown here. Equal values may be shown once. Numbered stars: 1 amine (or outer) side, 2 acyl side, 3 side chain; on linkers, the order of the positions; unused ones are H or OH. Bridge positions count the residues as written; N and C are the ends. Square brackets hold non-standard residues; d marks the D form. Peptide text beside a SMILES is read from it. X1 = CC(=O)NC(C(=O)OC(C(C)C)C(N[*:1])C(=O)[*:2])C(O)C(C)C; PhLac = O=C(O)[CH](O)Cc1ccccc1; NMeT = CN[CH](C(=O)O)[CH](C)O; NMeA = CN[CH](C)C(=O)O; NMeDha = C=C(NC)C(=O)O
What was measured:
mice = assay: Scratching bouts after subcutaneous injection into the nape of the neck / back; type: in vivo, mouse; settings: for Scratching bouts binned according to 5 min intervals (time course of itch behavior): one column per mouse, values of a mouse sum to 1 (Fig 1B)
Method: All applicable behavioral tests were performed and analysed with the experimenter blind to genotype. […] On the day before the experiment, animals were placed in the test chamber for 30 min before being subjected to a series of three mock injections with 5 min break periods in between. On the day of the experiment, animals were first allowed to acclimatize to the test chamber for 10 min before injection. […] A bout of scratching was defined as a continuous scratching movement with either hindpaw directed at the area of the injection site. In the cheek injection model, a wipe was defined as a single forepaw stroking the site of the injection. Use of both forepaws on the face or cheek was considered as grooming behavior. […] For H1R block, 30 mg/kg of cetirizine HCl (pH 7.4) was given intraperitoneally thirty minutes prior to injection of bilirubin. Licking behavior was quantified in seconds and identified as the licking of the toes or footpad of the hind paw site of injection that was neither preceded nor followed by licking of any other portion of the body.

MRGPRX4 = biological target: T1, MRGPRX4 (Homo sapiens, UniProt Q96LA9); assay: Ca2+ imaging and concentration-Ca2+ response (EC50) in HEK293 cells expressing MRGPRX4; type: cell-based; settings: for Effect on bilirubin-induced calcium responses: MRGPRX4 cells pre-incubated with 10 µM inhibitor for 30 min, 50 µM bilirubin; for Ca2+ response (concentration-response curve): MRGPRX4, triplicate wells (Fig 2I)
T1 construct: expressed in transfected cells
Method: (§1) All cultured cells were maintained in DMEM supplemented with 10% FBS and 1% Penicillin/Streptomycin at 37°C, 5% CO2. All data included were generated from cells tested for mycoplasma and found to be negative. Cells were imaged in calcium imaging buffer (CIB; 10 mM HEPES, 1.2 mM NaHCO3, 130 mM NaCl, 3 mM KCl, 2.5 mM CaCl2, 0.6 mM MgCl2, 20 mM glucose, and 20 mM sucrose at pH 7.4 and 290–300 mOsm). To monitor changes in intracellular [Ca^2+] ([Ca^2+]i), cells were loaded with either Fura 2-AM (HEK293 cells) or Fluo 4-AM (DRG neurons and mast cells) for 30 min in the dark at 37°C in CIB just prior to imaging. With Fura 2-AM, emission at 510 nm was monitored from excitation at both 340 nm and 380 nm. With Fluo 4-AM, emission at 520 nm was monitored from excitation at 488 nm. Cells were identified as responding if the intracellular [Ca^2+] rose by either 50% compared to baseline or 50% compared to the [Ca^2+]i change assayed during addition of 50 mM KCl (neurons only). Damaged, detached, high-baseline, and motion-activated cells were excluded from analysis.
(§2) In initial screens, HEK293 cells stably expressing the murine G-protein alpha-subunit Gα15, a unique Gα protein that non-selectively couples a large variety of GPCRs to phospholipase C ^30, were plated on poly-D-lysine-coated coverslips and transiently transfected with constructs encoding the MRGRPR of interest. 12–24 hr later, cells were loaded with the Fura 2-AM. Unless otherwise specified, compounds were perfused into the imaging chamber for approximately thirty seconds after a baseline period was established. Response was then monitored at 5 s intervals for an additional 60 s.
(§3) HEK293 cells stably expressing either MRGPRA1, MRGPRX4, and MRGRPC11 were seeded in poly-D-lysine-coated 96-well plates at 10,000 cells/well. Cells were loaded with Fura 2–AM, washed twice, and maintained in CIB. Haem metabolites were freshly dissolved in DMSO in dim light and then diluted into a buffer comprised of 20 mM Tris and 150 mM NaCl at pH 8.8. Potential changes in pH were evaluated prior to each experiment. EC50 values were determined from dose-responses performed in triplicate, repeated 2–4 times. To determine potential antagonism by QWF against bilirubin, cells were treated with varying doses of QWF for 1 min in CIB prior to application of agonist.
(§4) HEK293 stable cell lines expressing GFP-tagged MRGPRA3, MRGPRC11, MRGPRD, MRGPRX1, and MRGPRX2 were generated in previously described reports ([Liu et al., 2009]; [Liu et al., 2012]; [McNeil et al., 2015]). Briefly, plasmids containing the receptor of interest were transfected into HEK cells using Lipofectamine 3000. After 3 days, cells were then selected using 0.5 mg/mL G418. After 3 weeks, monoclonal colonies were established and each the highest expressing clones were identified. For this study, Mrgpra1 and MRGPRX4 were inserted into pEGFP-N1 and transfected into HEK293 cells. MRGPR-positive cells were selected using 0.5 mg/mL G418 for three weeks, after which GFP-positive cells were sorted by FACS and monoclonally expanded. Two lines expressing similar levels of MRGPRA1 and MRGPRX4, as measured by GFP fluorescence, were selected for study.

MRGPRA1 = biological target: T2, MRGPRA1 (Mus musculus, UniProt Q91WW5); assay: Ca2+ imaging and concentration-Ca2+ response (EC50) in HEK293 cells expressing MRGPRA1; type: cell-based; settings: for Effect on bilirubin-induced calcium responses: MRGPRA1 cells pre-incubated with 10 µM inhibitor for 30 min, 50 µM bilirubin; for Ca2+ response (concentration-response curve): MRGPRA1, triplicate wells (Fig 2D)
T2 construct: expressed in transfected cells
T2 sequence (Q91WW5 1-304): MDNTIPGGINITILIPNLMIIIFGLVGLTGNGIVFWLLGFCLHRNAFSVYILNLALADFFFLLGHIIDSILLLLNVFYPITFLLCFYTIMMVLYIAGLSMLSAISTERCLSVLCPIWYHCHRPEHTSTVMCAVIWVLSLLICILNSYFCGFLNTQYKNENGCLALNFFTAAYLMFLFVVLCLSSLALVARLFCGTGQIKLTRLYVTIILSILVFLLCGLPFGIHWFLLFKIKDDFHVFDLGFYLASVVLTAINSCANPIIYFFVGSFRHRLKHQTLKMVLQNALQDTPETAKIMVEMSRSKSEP
Method: as §1, §2, §3, §4

T1 sequence (Q96LA9 whole entry): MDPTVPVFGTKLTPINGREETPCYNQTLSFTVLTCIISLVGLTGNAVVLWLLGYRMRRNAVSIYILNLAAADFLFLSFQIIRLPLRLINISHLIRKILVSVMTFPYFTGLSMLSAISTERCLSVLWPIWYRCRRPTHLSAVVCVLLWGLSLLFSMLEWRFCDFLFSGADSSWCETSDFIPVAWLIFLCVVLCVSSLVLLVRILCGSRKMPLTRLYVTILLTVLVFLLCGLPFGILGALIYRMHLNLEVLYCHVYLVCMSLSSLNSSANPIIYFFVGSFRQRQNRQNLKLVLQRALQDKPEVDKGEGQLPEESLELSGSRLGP

CCN(CC)CCCC(C)Nc1ccnc2cc(Cl)ccc12 (stereo not shown) [Chloroquine, chloroquine]
Scratching bouts binned according to 5 min intervals (time course of itch behavior) (mice; time 5 min): 0.201 and 0.03846 and 0.1149 and 0.1078 and 0.05405 and 0 (2×) and 0.1374 and 0.04255 and 0.2424 and 0.1529 | Scratching bouts binned according to 5 min intervals (time course of itch behavior) (mice; time 10 min): 0.2353 and 0.1065 and 0.2213 and 0.1121 and 0.1459 and 0.2993 and 0.3626 and 0.4113 and 0.6263 and 0.2639 and 0.4204 | Scratching bouts binned according to 5 min intervals (time course of itch behavior) (mice; time 15 min): 0.348 and 0.3787 and 0.1447 and 0.2155 and 0.3676 and 0.3673 and 0.4011 and 0.3191 and 0 and 0.5 and 0.2548 | Scratching bouts binned according to 5 min intervals (time course of itch behavior) (mice; time 20 min): 0.1618 and 0.2426 and 0.2681 and 0.2284 and 0.1838 and 0.1837 and 0.0989 and 0.09929 and 0.1212 and 0 (2×) | Scratching bouts binned according to 5 min intervals (time course of itch behavior) (mice; time 25 min): 0.05392 and 0.142 and 0.1447 and 0.1336 and 0.09189 and 0.1361 and 0 (3×) and 0.2361 and 0.172 | Scratching bouts binned according to 5 min intervals (time course of itch behavior) (mice; time 30 min): 0 (4×) and 0.09172 and 0.1064 and 0.2026 and 0.1568 and 0.01361 and 0.1277 and 0.0101

NCCc1c[nH]cn1 [Histamine, histamine]
Scratching bouts binned according to 5 min intervals (time course of itch behavior) (mice; time 5 min): 0.02985 and 0.0102 and 0 (10×) and 0.134 | Scratching bouts binned according to 5 min intervals (time course of itch behavior) (mice; time 10 min): 0.3881 and 0.5714 and 0.08333 and 0.1818 and 0.3333 and 0.527 and 0.02857 and 0.1765 and 0.2143 and 0.1923 and 0.3918 and 0.5938 and 0.4348 | Scratching bouts binned according to 5 min intervals (time course of itch behavior) (mice; time 15 min): 0.2985 and 0.07143 and 0.8333 and 0.6545 and 0.625 and 0.3919 and 0.4286 and 0.2353 and 0.3367 and 0.3846 and 0.1031 and 0 and 0.5435 | Scratching bouts binned according to 5 min intervals (time course of itch behavior) (mice; time 20 min): 0.2687 and 0.1633 and 0 (2×) and 0.1636 and 0.04167 and 0.08108 and 0.2286 and 0.4118 and 0.08163 and 0.1154 and 0.2344 and 0.02174 | Scratching bouts binned according to 5 min intervals (time course of itch behavior) (mice; time 25 min): 0.01493 and 0.1837 and 0.08333 and 0 (4×) and 0.3143 and 0.1765 and 0.1939 and 0.3077 and 0.2474 and 0.1719 | Scratching bouts binned according to 5 min intervals (time course of itch behavior) (mice; time 30 min): 0 (11×) and 0.1735 and 0.1237

COc1ccc2c(c1)CC[C@@H]1[C@@H]2CC[C@]2(C)[C@@H](NCCCCCCN3C(=O)C=CC3=O)CC[C@@H]12 [U73122, reference compound]
Effect on bilirubin-induced calcium responses (MRGPRX4): inhibited bilirubin-induced calcium responses | Effect on bilirubin-induced calcium responses (MRGPRA1): abolished bilirubin-induced calcium responses

C=C1C(=O)NC(C)C(=O)N(C)C(C)C(=O)NC(C(OC(=O)C(NC(C)=O)C(O)C(C)C)C(C)C)C(=O)N(C)C(C(C)OC)C(=O)OC(C)C(NC(C)=O)C(=O)OC(Cc2ccccc2)C(=O)N1C (stereo not shown) [YM-254890, reference compound] (Ac-T[PhLac][NMeDha]A[NMeA][X1][NMeT](Me); ester 1-C; configuration not given here)
Effect on bilirubin-induced calcium responses (MRGPRX4): inhibited bilirubin-induced calcium responses | Effect on bilirubin-induced calcium responses (MRGPRA1): abolished bilirubin-induced calcium responses

C=CC1=C(C)/C(=C/C2=NC(=C\c3[nH]c(/C=C4\NC(=O)C(C)=C4C=C)c(C)c3CCC(=O)O)/C(CCC(=O)O)=C2C)NC1=O [biliverdin]
Ca2+ response (concentration-response curve) (MRGPRX4; [Ligand] 7.8125e-6 M): 0 | Ca2+ response (concentration-response curve) (MRGPRX4; [Ligand] 1.5625e-5 M): 0 | Ca2+ response (concentration-response curve) (MRGPRX4; [Ligand] 3.125e-5 M): 0 | Ca2+ response (concentration-response curve) (MRGPRX4; [Ligand] 6.25e-5 M): 0 | Ca2+ response (concentration-response curve) (MRGPRX4; [Ligand] 0.000125 M): 0 | Ca2+ response (concentration-response curve) (MRGPRX4; [Ligand] 0.00025 M): 0 | Ca2+ response (concentration-response curve) (MRGPRX4; [Ligand] 0.0005 M): 0 | Ca2+ response (concentration-response curve) (MRGPRX4; [Ligand] 0.001 M): 0 | Ca2+ response (concentration-response curve) (MRGPRA1; [Ligand] 7.8125e-6 M): 0 | Ca2+ response (concentration-response curve) (MRGPRA1; [Ligand] 1.5625e-5 M): 0 | Ca2+ response (concentration-response curve) (MRGPRA1; [Ligand] 3.125e-5 M): 0 | Ca2+ response (concentration-response curve) (MRGPRA1; [Ligand] 6.25e-5 M): 0 | Ca2+ response (concentration-response curve) (MRGPRA1; [Ligand] 0.000125 M): 0 | Ca2+ response (concentration-response curve) (MRGPRA1; [Ligand] 0.00025 M): 0 | Ca2+ response (concentration-response curve) (MRGPRA1; [Ligand] 0.0005 M): 0 | Ca2+ response (concentration-response curve) (MRGPRA1; [Ligand] 0.001 M): 0 | Scratching behavior (mice; metabolite injected into mice (Fig 1D)): did not induce scratching

O=C(O)COCCN1CCN(C(c2ccccc2)c2ccc(Cl)cc2)CC1 (stereo not shown) [cetirizine]
Effect on scratching of mice injected with bilirubin (mice; 30 mg/kg i.p. 30 min prior to bilirubin at the nape): failed to alleviate scratching behavior

Reference: paper PMC6368403, “Identification of a bilirubin receptor that may mediate a component of cholestatic itch” (eLife, 2019)
